# Where two headings read alike, the source gives them in different places. Positions of bridges follow the written chain, without caps; N, C: chain ends. Non-standard residues stand in square brackets, D forms with d. Residues, ends and D or L forms follow the SMILES beside them. No end group written: not given here. Dab = NCC[C@H](N)C(=O)O
# Experiments:
# [1] = test system: Tricophyton rubrum; test: MIC against human nail pathogens; details: isolate 23014; Table 13
# [2] = test system: Tricophyton metagrophytes; test: MIC against human nail pathogens; details: isolate 26103; Table 13
# [3] = test system: Aspergillus fumigatus
# [4] = test system: B. cinerea; test: MIC antifungal assay in SFM culture media (with or without added salts); type: cell-based, Botrytis cinerea; details: for antifungal activity relative to the wild-type GMA4C_AC control, B. cinerea: in vitro, low cationic conditions
# [5] = test system: P. capsici; test: MIC antifungal assay in SFM culture media; type: cell-based; details: in vitro, low cationic conditions
# [6] = test system: F. oxysporum; test: MIC antifungal assay in SFM culture media; type: cell-based; details: in vitro, low cationic conditions
# [7] = test system: F. graminearum; type: cell-based, Fusarium graminearum; details: in vitro, low cationic conditions
# [8] = test system: Candida auris; details: for MIC values (μg/ml) 100%: Table 8
# [9] = test system: Candida albicans; details: for MIC values (μg/ml) 100%: Table 8
# [10] = test system: C. albicans; test: Peptide or protein/Fluconazole combination MIC and FICI; details: combination with Fluconazole
# [11] = test system: Botrytis cinerea T4; type: cell-based
# [12] = test system: Fusarium graminearum PH-1; type: cell-based; details: for F. graminearum PH-1 MIC Day 1: Fusarium graminearum PH-1, 96-well, resazurin viability
# [13] = test system: Alternaria alternata; test: 96-well plate MIC assay with resazurin viability; type: cell-based; details: Table 19; unit not given (peptide concentrations in μM)
# [14] = test system: Botrytis cinerea T-4; details: Table 18
# [15] = test system: B. cinerea; test: Semi-in planta gray mold assay on detached Nicotiana benthamiana leaves (drop inoculation); type: in vivo, Botrytis cinerea; details: for reducing gray mold disease symptoms (lesion sizes): detached N. benthamiana leaves, 1.5 μM, 3 μM and 6 μM, 48 h
# [16] = test system: Cercospora sojina; test: 96-well plate MIC assay with resazurin viability; type: cell-based; details: Table 19; unit not given (peptide concentrations in μM)
# [17] = test system: Colletotrichum gloeosporioides; test: 96-well plate MIC assay with resazurin viability; type: cell-based; details: Table 19; unit not given (peptide concentrations in μM)
# [18] = test system: Coccidioides sp.; type: cell-based; details: Table 8
# [19] = test system: Fusarium (F. oxysporum); test: MIC, CLSI M27/M38, half-strength potato dextrose broth; type: cell-based; details: Table 8
# Procedure: (§1) MICs were determined at 24-72 hours.
# [20] = test system: Fusarium (F. solani); test: as above; type: cell-based; details: Fusarium F4 (F. solani); Table 8
# Procedure: as §1
# [21] = test system: C. parapsilosis; test: as above; type: cell-based, Candida parapsilosis; details: C. parapsilosis ATCC 22019; Table 8
# Procedure: as §1
compound,measurement,setting,value
"OeDef1_V3: OeDef1 variant, printed with SEQ ID NO: 769 in Table 13 (GACLKNRHSKHYGWFWYYRHCY-NH2; disulfide 3-21 (inferred))",MIC in μM Tricophyton rubrum (23014),[1],4.0 µM
same,MIC in μM Tricophyton metagrophytes (26103),[2],4.0 µM
same,MIC in μM Aspergillus fumigatus (36843),"[3]; isolate 36843, Table 13",>7.9 µM
N=C(N)NCCC[C@H](NC(=O)CNC(=O)[C@@H](N)Cc1ccccc1)C(=O)N[C@@H](CS)C(=O)N[C@@H](CCCNC(=N)N)C(=O)NCC(=O)N[C@@H](Cc1ccccc1)C(=O)N[C@@H](CCCNC(=N)N)C(=O)N[C@@H](CCCNC(=N)N)C(=O)N[C@@H](CCCNC(=N)N)C(=O)N[C@@H](CS)C(=O)N[C@@H](Cc1ccccc1)C(=O)N[C@@H](CS)C(=O)N[C@@H](Cc1c[nH]c2ccccc12)C(=O)N[C@@H](CCCNC(=N)N)C(=O)N[C@@H](Cc1c[nH]c2ccccc12)C(=O)N[C@@H](CS)C(N)=O [GMA4C_V4A] (H-FGRCRGFRRRCFCWRWC-NH2; N-terminus assumed),fungal growth inhibition at 6 μM,"[4]; B. cinerea, in presence of 2 mM CaCl2, 6 μM",inhibit fungal growth
same,potency of activity relative to GMA4C_AC,"[4]; B. cinerea, in presence of 100 mM NaCl or 100 mM KCl",2 fold
same,"antifungal activity relative to the wild-type GMA4C_AC control, B. cinerea",[4],equivalent
same,"antifungal activity relative to the wild-type GMA4C_AC control, P. capsici",[5],equivalent
same,"antifungal activity relative to the wild-type GMA4C_AC control, F. oxysporum",[6],equivalent
same,"antifungal activity relative to the wild-type GMA4C_AC control, F. graminearum",[7],equivalent
CC[C@H](C)[C@H](NC(=O)[C@H](CCCNC(=N)N)NC(=O)[C@@H](NC(=O)[C@@H](NC(=O)[C@H](Cc1ccccc1)NC(=O)[C@@H](NC(=O)[C@H](CCCNC(=N)N)NC(=O)[C@H](CCCNC(=N)N)NC(=O)[C@H](CCCNC(=N)N)NC(=O)[C@H](Cc1ccccc1)NC(=O)CNC(=O)[C@H](CCCNC(=N)N)NC(=O)[C@H](CS)NC(=O)[C@H](CCCNC(=N)N)NC(=O)CNC(=O)CN)C(C)C)C(C)C)[C@@H](C)O)C(=O)N[C@@H](CS)C(N)=O [GMA4C_V3A] (H-GGRCRGFRRRVFVTRIC-NH2; N-terminus assumed),Candida auris (38883) MIC,[8],5.6 µM
same,"antifungal activity relative to the wild-type GMA4C_AC control, B. cinerea",[4],equivalent
same,Candida albicans (33795) MIC,[9],2.8 µM
same,"antifungal activity relative to the wild-type GMA4C_AC control, P. capsici",[5],equivalent
same,"antifungal activity relative to the wild-type GMA4C_AC control, F. oxysporum",[6],equivalent
same,"antifungal activity relative to the wild-type GMA4C_AC control, F. graminearum",[7],equivalent
same,MIC in μM Aspergillus fumigatus (36843),[3],11.2 µM
same,Interpretation,[10],Conclusion: GMA4C_v3 shows synergistic enhancement of antifungal activity against drug resistant C. albicans in combination with Fluconazole
"C[C@@H]1[C@H](O)[C@@H](C)/C=C/C=C/C=C/C=C/C=C/C=C/C=C/[C@H](O[C@@H]2O[C@H](C)[C@@H](O)[C@H](N)[C@@H]2O)C[C@@H]2O[C@](O)(C[C@@H](O)C[C@@H](O)[C@H](O)CC[C@@H](O)C[C@@H](O)CC(=O)O[C@H]1C)C[C@H](O)[C@H]2C(=O)O [Amphotericin-B, reference compound]",MIC against B. cinerea,[11],3 µM
same,MIC against F. graminearum,"[12]; F. graminearum PH-1, Example 7",6 µM
same,F. graminearum PH-1 MIC Day 1,[12],6 µM
CC[C@H](C)[C@@H]1NC(=O)[C@H](CCCNC(=N)N)NC(=O)[C@H]([C@@H](C)O)NC(=O)[C@H](Cc2c[nH]c3ccccc23)NC(=O)[C@H](Cc2ccc(O)cc2)NC(=O)[C@H](Cc2c[nH]c3ccccc23)NC(=O)[C@H](CCCNC(=N)N)NC(=O)[C@H](CCCNC(=N)N)NC(=O)[C@H](CCCNC(=N)N)NC(=O)[C@H](Cc2ccccc2)NC(=O)CNC(=O)[C@H](CCCCN)NC(=O)[C@@H](NC(=O)[C@H](CCCNC(=N)N)NC(=O)CNC(=O)CN)CSSC[C@@H](C(N)=O)NC1=O [GMA4C_V10] (H-GGRCKGFRRRWYWTRIC-NH2; disulfide 4-17; N-terminus assumed),MIC Alternaria alternata,[13],>12
same,MIC (μM) SFM,[14],3 µM
same,MIC (μM) (SFM + 2 mM CaCl2),[14],3 µM
same,MIC (μM) (SFM + 100 mM KCl),[14],3 to 6 µM
same,MIC (μM) (SFM + 100 mM NaCl),[14],3 µM
same,reducing gray mold disease symptoms (lesion sizes),[15],effective
same,"reducing the symptoms of gray mold, comparison","[15]; low concentrations of 1.5 μM and 3 μM, compared with GMA4C_V9",more effective
same,MIC Cercospora sojina,[16],6
same,MIC Colletotrichum gloeosporioides,[17],>12
CC[C@H](C)[C@@H]1NC(=O)[C@H](CCCNC(=N)N)NC(=O)[C@H]([C@@H](C)O)NC(=O)[C@H](Cc2ccccc2)NC(=O)[C@H](Cc2c[nH]c3ccccc23)NC(=O)[C@H](Cc2ccccc2)NC(=O)[C@H](CCCNC(=N)N)NC(=O)[C@H](CCCNC(=N)N)NC(=O)[C@H](CC(C)C)NC(=O)[C@H](Cc2ccccc2)NC(=O)CNC(=O)[C@H](CCCCN)NC(=O)[C@@H](NC(=O)[C@H](CCCNC(=N)N)NC(=O)CNC(=O)CN)CSSC[C@@H](C(N)=O)NC1=O [GMA4C_V9] (H-GGRCKGFLRRFWFTRIC-NH2; disulfide 4-17; N-terminus assumed),MIC Alternaria alternata,[13],>12
same,MIC (μM) SFM,[14],3 µM
same,MIC (μM) (SFM + 2 mM CaCl2),[14],12 µM
same,MIC (μM) (SFM + 100 mM NaCl),[14],3 µM
same,reducing gray mold disease symptoms (lesion sizes),[15],effective
same,MIC Cercospora sojina,[16],6
same,MIC Colletotrichum gloeosporioides,[17],>12
"PD81.1.1: SEQ ID NO: 534 with N-terminal alanine; Pinus sylvestris wild-type defensin, expressed in Pichia pastoris (RMCKTPSGKFKGYCVSSTNCKNVCRTEGFPTGSCDFHVASRKCYCYKPC; N-terminal alanine added; listed as Pinus sylvestris)",MIC against B. cinerea,[11],1 µM
same,F. graminearum PH-1 MIC Day 1,[12],1.5 µM
"NCC[C@H](NC(=O)CNC(=O)[C@@H](N)Cc1ccccc1)C(=O)N[C@@H](CS)C(=O)N[C@@H](CCN)C(=O)NCC(=O)N[C@@H](Cc1ccccc1)C(=O)N[C@@H](CCN)C(=O)N[C@@H](CCN)C(=O)N[C@@H](CCN)C(=O)N[C@@H](CS)C(=O)N[C@@H](Cc1ccccc1)C(=O)N[C@@H](CS)C(=O)N[C@@H](Cc1c[nH]c2ccccc12)C(=O)N[C@@H](CCN)C(=O)N[C@@H](Cc1c[nH]c2ccccc12)C(=O)N[C@@H](CS)C(N)=O [GMA4C_V5A, FG(Dab)C(Dab)GF(Dab)(Dab)(Dab)CFCW(Dab)WC-NH2] (H-FG[Dab]C[Dab]GF[Dab][Dab][Dab]CFCW[Dab]WC-NH2; N-terminus assumed)","antifungal activity relative to the wild-type GMA4C_AC control, B. cinerea",[4],equivalent
same,"antifungal activity relative to the wild-type GMA4C_AC control, P. capsici",[5],equivalent
same,"antifungal activity relative to the wild-type GMA4C_AC control, F. oxysporum",[6],equivalent
same,"antifungal activity relative to the wild-type GMA4C_AC control, F. graminearum",[7],equivalent
CC[C@H](C)[C@H](NC(=O)[C@H](CCCNC(=N)N)NC(=O)[C@@H](NC(=O)[C@H](CS)NC(=O)[C@H](Cc1ccccc1)NC(=O)[C@H](CS)NC(=O)[C@H](CCCNC(=N)N)NC(=O)[C@H](CCCNC(=N)N)NC(=O)[C@H](CCCNC(=N)N)NC(=O)[C@H](Cc1ccccc1)NC(=O)CNC(=O)[C@H](CCCNC(=N)N)NC(=O)[C@H](CS)NC(=O)[C@H](CCCNC(=N)N)NC(=O)CNC(=O)CN)[C@@H](C)O)C(=O)N[C@@H](CS)C(N)=O [GMA4C_V2A] (H-GGRCRGFRRRCFCTRIC-NH2; N-terminus assumed),MIC values (μg/ml) 100%,[8]; Candida auris DI17-46,16 µg/mL
same,MIC values (μg/ml) 100%,[8]; Candida auris DI17-47,16 µg/mL
same,MIC values (μg/ml) 100%,[8]; Candida auris DI17-48,16 µg/mL
same,"antifungal activity relative to the wild-type GMA4C_AC control, B. cinerea",[4],two-fold reduction
same,MIC values (μg/ml) 100%,[18]; Coccidioides sp. Cocci1,8 µg/mL
same,MIC values (μg/ml) 100%,[18]; Coccidioides sp. Cocci2,16 µg/mL
same,MIC values (μg/ml) 100%,[18]; Coccidioides sp. DI17-143,16 µg/mL
same,MIC values (μg/ml) 100%,[19]; Fusarium F1 (F. oxysporum),8 µg/mL
same,MIC values (μg/ml) 100%,[19]; Fusarium F2 (F. oxysporum),16 µg/mL
same,MIC values (μg/ml) 100%,[20],8 µg/mL
same,MIC values (μg/ml) 100%,[9]; Candida albicans ATCC 90028,16 µg/mL
same,MIC values (μg/ml) 100%,[9]; Candida albicans CA3,16 µg/mL
same,MIC values (μg/ml) 100%,[9]; Candida albicans SC5314,16 µg/mL
same,"antifungal activity relative to the wild-type GMA4C_AC control, F. graminearum",[7],two-fold reduction
same,MIC values (μg/ml) 100%,[21],8 µg/mL
same,MIC values (μg/ml) 100%,"[3]; Aspergillus fumigatus AF293, Table 8",32 µg/mL
